# In patent publication US20170112741A1, “AGENT FOR AMELIORATING SKIN SYMPTOM, HAIR GROWTH AGENT OR SLIMMING AGENT” (GOLDCREST MEDICINE INSTITUTE CO., LTD., priority 2014, published 2017):
# Assays:
# Format in all cases: in vivo, human
# moles [1] = test: Effect of oral administration on 4 moles on left ankle and 4 small moles around them; details: for Color and shape of mole No. 4, left ankle: Jun. 20, 2013: brown circular
# Text: On the part slightly above the left ankle, 4 black moles were observed. From a direction of the little toe of the left foot, there were 3 black circular moles having a similar diameter ranging from about 3.7 mm to about 4 mm, present almost in one line with an interval of 2.4 cm and 2.6 cm. […]
# At a position 6 mm above the second mole, there was a red oval mole of 1 mm×1.7 mm. […]
# head hair / bald area = test: Hair growth on the head of patient A, photographs before and after oral cabergoline
# Text: According to the photograph (1) of patient A (FIG. 1) taken at a restaurant during travel in Shonai region of Yamagata Prefecture on Sep. 16, 2010, the head of patient A from the upper forehead to the crown was quite bald. Only a small amount of hair was left right above the forehead. Patient A was […] at the time of taking the photo. Since the cabergoline administration was started on Jun. 20, 2013, patient A was […] at that time, which was 2 years and 9 months after taking the photograph (1), and thus, aging further progressed so that the hair became thinner and the hair loss progressed.
# The image of the occipital region of patient A taken from the back side on Sep. 16, 2010, is shown in the photograph (2) (FIG. 2).
# In the period from Jun. 20, 2013 (Thursday) to Jul. 15, 2013 (Monday), one tablet of 0.25 mg cabergoline was orally administered twice per week, on Monday and Thursday, and thus a total of 2 mg of cabergoline was administered over one month. From July 18, the administration of cabergoline was changed from two tablets per week to one tablet per week. The total dose of cabergoline administered from Jul. 18, 2013 to Jan. 20, 2014 was about 6 mg, and thus, the total amount of cabergoline administered after the start of administration was calculated to be 8 mg.
# Images of the frontal region and the occipital region of patient A taken on Feb. 27, 2014 are shown as photograph (3) (FIG. 3) and photograph (4) (FIG. 4), respectively.
# moles [2] = test: Effect of oral cabergoline on 10 moles of the femoral region of the right leg; details: Jan. 20, 2014, after 7 months oral cabergoline; for Color and shape of mole 1, upper part of side area / Color and shape of mole 2, lower part of side area: Jun. 20, 2013: Black rectangle
# Experimental: 10 moles were present within an area having a width of 10 cm and a length of 8 cm extending from the outer side to the front side of the femoral region of the right leg. After 7 months, the state of those 10 moles was observed and the effect of oral administration of cabergoline was investigated.
# For the first 4 weeks from […], one tablet (0.25 mg) of carbegoline was administered on Monday and Thursday. The total dose over the 4 weeks was 2 mg. For the following 26 weeks, one tablet of cabergoline was administered on every Thursday. The total dose of cabergoline over the 7-month treatment period was calculated to be 8.5 mg.
# prolactin level in blood = test: Prolactin level in blood of patient A (prolactin-producing pituitary adenoma) during cabergoline treatment
# Experimental: In view of the dramatic improvement of prolactin level, the doctor ordered that the cabergoline administration for the next 1 month be changed to one tablet/week, and oral administration be carried out before sleeping on Thursday. […] As such, the cabergoline administration was maintained at one tablet/week, and the administration period was extended up to 2 months.
# Thus, the treatment regimen using cabergoline from August 15 to October 3 was also determined to be oral administration of one tablet (0.25 mg) on Thursday.
# senile plaques = test: Change in 5 senile plaques on the back of both hands of patient A under orally administered cabergoline
# Text: To find out the pharmaceutical effect of orally administered cabergoline, a change in the symptom of 5 senile plaques occurring on the back of both hands of patient A was investigated for 10 weeks from Jun. 20, 2013 (Thursday) to Aug. 29, 2013 (Thursday).
# Patient A was a person with prolactin-producing pituitary adenoma. Before the clinical test of the treatment, patient A had dark brown circle-like senile plaques, specifically, 3 plaques on the back of the left hand (long diameter 11 mm×short diameter 8 mm, long diameter 8 mm×short diameter 6 mm, and long diameter 7 mm×short diameter 5 mm) and 2 plaques on the back of the right hand (long diameter 10 mm×short diameter 8 mm and long diameter 7 mm×short diameter 6 mm).
# According to the doctor's instruction, oral administration was performed twice/week, on Monday and Thursday, for the first 4 weeks (from June 20 to July 15), and the dose was 2 mg/4 weeks.
# A total of 1 mg of cabergoline were orally administered by this 4-week administration (administration dates are as follows: July 18, July 25, August 1, and August 8).
# The cabergoline administration on week 9 and week 10 was performed on August 15 (Thursday) and August 22 (Thursday).
# [3] = Jan. 17, 2014 (after 210 days), listed as novel skin treatment agent
# [4] = Jan. 17, 2014 (after 210 days), size 1.8 × 2.2 wrapped over two grid lines, Jun. 20, 2013: 3.9 mm
# [5] = Mar. 20, 2014 (after 272 days), vague border, Jun. 20, 2013: black circular
# [6] = Feb. 27, 2014 vs Sep. 16, 2010, oral cabergoline since Jun. 20, 2013
# [7] = listed as novel skin treatment agent
# [8] = Jun. 20, 2013: Dark brown circle
compound,measurement,setting,value
C=CCN1C[C@H](C(=O)N(CCCN(C)C)C(=O)NCC)C[C@@H]2c3cccc4[nH]cc(c34)C[C@H]21 [cabergoline],"Color and shape of mole No. 1, left ankle","moles [1]; Dec. 4, 2013 (after 166 days), Jun. 20, 2013: black circular",a red circular mole
same,"Diameter of mole No. 1, left ankle","moles [1]; Dec. 4, 2013 (after 166 days), Jun. 20, 2013: black circular, diameter 3.7 mm",1.2 mm. The color
same,"Color and shape of mole No. 4, left ankle","moles [1]; Dec. 4, 2013 (after 166 days)",yellow-brown circular mole
same,"Diameter of mole No. 4, left ankle","moles [1]; Dec. 4, 2013 (after 166 days), Jun. 20, 2013: brown circular mole of 2.0 × 1.8 mm","with a diameter of 1.0 mm,"
same,Diameter of the 2 red moles among the small moles above mole No. 3,"moles [1]; Dec. 4, 2013 (after 166 days), Jun. 20, 2013: diameter 1.5 mm",diameter of 0.5 mm.
same,"Color and shape of mole No. 3, left ankle","moles [1]; Dec. 4, 2013 (after 166 days), cell continues: brown rectangular mole, vague border, Jun. 20, 2013: black circular",The mole shrunk to a blackish
same,"Color of mole No. 2, left ankle","moles [1]; Dec. 4, 2013 (after 166 days), oval, vague border, Jun. 20, 2013: black circular",faded to light brown.
same,State of the 3 small moles above mole No. 3,"moles [1]; Jan. 17, 2014 (after 210 days)",completely disappeared
same,State of the small mole above mole No. 2,"moles [1]; Jan. 17, 2014 (after 210 days)",completely disappeared
same,"Diameter of mole No. 1, left ankle","moles [1]; Jan. 17, 2014 (after 210 days), Jun. 20, 2013: 3.7 mm",1.0 mm.
same,"Color and shape of mole No. 1, left ankle","moles [1]; Jan. 17, 2014 (after 210 days), Jun. 20, 2013: black circular",Red circular mole
same,"Color and shape of mole No. 4, left ankle","moles [1]; Jan. 17, 2014 (after 210 days)",Light brown line-shaped
same,State of the 3 small moles above mole No. 3,moles [1]; [3],The upper 3 moles disappeared.
same,State of the small mole above mole No. 2,moles [1]; [3],The upper mole disappeared.
same,"Length of mole No. 2, left ankle",moles [1]; [4],2.2 mm with a vague border.
same,"Width of mole No. 2, left ankle",moles [1]; [4],1.8 mm
same,"Color and shape of mole No. 2, left ankle","moles [1]; Jan. 17, 2014 (after 210 days), vague border, Jun. 20, 2013: black circular",Light brown oval mole
same,"Diameter of mole No. 1, left ankle","moles [1]; Mar. 20, 2014 (after 272 days), Jun. 20, 2013: 3.7 mm",1 mm
same,"Diameter of mole No. 1, left ankle","moles [1]; Mar. 20, 2014 (after 272 days), Jun. 20, 2013: 3.7 mm, listed as novel skin treatment agent",diameter of 1.0 mm.
same,"Diameter of mole No. 2, left ankle","moles [1]; Mar. 20, 2014 (after 272 days), Jun. 20, 2013: 3.9 mm",2 mm
same,"Diameter of mole No. 2, left ankle","moles [1]; Mar. 20, 2014 (after 272 days), Jun. 20, 2013: 3.9 mm, listed as novel skin treatment agent",diameter of 2.0 mm with a vague
same,"Color and shape of mole No. 1, left ankle","moles [1]; Mar. 20, 2014 (after 272 days), Jun. 20, 2013: black circular",red circular shape
same,"Color and shape of mole No. 1, left ankle","moles [1]; Mar. 20, 2014 (after 272 days), Jun. 20, 2013: black circular, listed as novel skin treatment agent",Light red circular
same,"Color and shape of mole No. 4, left ankle","moles [1]; Mar. 20, 2014 (after 272 days), cell continues: shaped mole",only a trace of a faint line shape was observed
same,"Color and shape of mole No. 4, left ankle","moles [1]; Mar. 20, 2014 (after 272 days), cell continues: shaped mole, listed as novel skin treatment agent",Very light brown line-
same,"Color and shape of mole No. 2, left ankle",moles [1]; [5],pale light brown circular mole
same,"Color and shape of mole No. 3, left ankle",moles [1]; [5],blackish brown color and an almost rectangular shape
same,"Color and shape of mole No. 3, left ankle","moles [1]; Mar. 20, 2014 (after 272 days), vague border, Jun. 20, 2013: black circular, listed as novel skin treatment agent",Dark brown rectangular mole of
same,"Bald area, frontal region of the head (photograph (3))",head hair / bald area; [6],clearly reduced
same,"Bald area, region from the crown to the occipital region (photograph (4) vs (2))",head hair / bald area; [6],the bald area was reduced
same,Hairs in the region from the crown to the occipital region,head hair / bald area; [6],hairs were increased
same,Hair in the frontal region of the head (photograph (3)),"head hair / bald area; Feb. 27, 2014 vs Sep. 16, 2010, oral cabergoline since Jun. 20, 2013, about 8 mg in total by Jan. 20, 2014",short black hairs were found in the previously bald region
same,Appearance of all 4 moles on the front area,moles [2],"turned into faint flesh colored, pigmented macules"
same,Diameter of the 2 light brown circular moles sandwiching the red moles of the middle area,moles [2],1 mm
same,Diameter of the remaining 2 small front-area moles,moles [2],1 mm
same,Size change of the front-area moles of 4.5 mm and 3 mm,moles [2],hardly shrunk
same,"Appearance of mole 7, upper part of front area","moles [2]; Jun. 20, 2013: 3.3 × 3.1 Brown circle-like, cell continues: flesh color",Turned into weak pigmented macules having
same,"Size change of mole 7, upper part of front area","moles [2]; Jun. 20, 2013: 3.3 × 3.1 mm",flesh color with almost no change in size
same,"Color and shape of mole 1, upper part of side area",moles [2],dark brown rectangular mole
same,"Color and shape of mole 2, lower part of side area",moles [2],faded light brown oval mole with an unclear border
same,"Color and shape of mole 1, upper part of side area",moles [2]; [7],Dark brown rectangle
same,"Color and shape of mole 2, lower part of side area",moles [2]; [7],"Faint, light brown rectangle"
same,"Color and shape of mole 4, central left part of middle area","moles [2]; Jun. 20, 2013: Brown rectangle",Light red circle-like
same,"Color and shape of mole 3, upper part of middle area",moles [2]; [8],"Faint, light brown circle"
same,"Color and shape of mole 6, lower part of middle area",moles [2]; [8],Dark brown circle
same,"Color and shape of mole 5, central right part of middle area","moles [2]; Jun. 20, 2013: Dark brown oval",Red circle-like
same,prolactin level in blood,"prolactin level in blood; August 14, after further 4 weeks at one tablet (0.25 mg)/week oral",47.8 ng/mL
same,prolactin level in blood,"prolactin level in blood; July 17, after 4 weeks at 2 mg/4 weeks oral, level on April 18 was 20888 ng/mL",101.8 ng/mL
same,prolactin level in blood (earlier level as restated),prolactin level in blood; level before the decrease seen on August 14,102 ng/mL
same,color of the senile plaques,"senile plaques; August, 6 weeks after starting cabergoline administration",started to become lighter
same,state of the senile plaques,"senile plaques; end of August, after 10 weeks oral cabergoline",clearly disappeared
same,state of the 5 senile plaques,"senile plaques; first 4 weeks (June 20 to July 15), oral twice/week, 2 mg/4 weeks, direct observation",no change was recognized
same,skin of the back of both hands,"senile plaques; from end of August, previously flecked with pigmented macules and dry",gradually started to become white and have lighter skin texture
same,size of the senile plaques,"senile plaques; from mid-August, one tablet (0.25 mg)/week oral",started to show a tendency to shrink in size
